The structures appear in SMILES notation. In brackets after ≈: the same amount, converted by molar mass. Read-outs that look alike come from different tables or passages of the source. Where only a bound is given, the exact number is not on record here.

Here are results for eleven molecules from patent publication US9944654B2, “Nargenicin compounds and uses thereof as antibacterial agents” (priority 2014, dated 2018).

Experiment [1] deals with T1, S. aureus DnaE (DNA polymerase III α-subunit homolog from Staphylococcus aureus) (Staphylococcus aureus, UniProt Q5HF71).
T1 construct: SaDnaE (S. aureus DnaE residues 1-1065); 6xHis (N); made in house; host or cells: E. coli BL21-AI
T1 sequence (Q5HF71 1-1065): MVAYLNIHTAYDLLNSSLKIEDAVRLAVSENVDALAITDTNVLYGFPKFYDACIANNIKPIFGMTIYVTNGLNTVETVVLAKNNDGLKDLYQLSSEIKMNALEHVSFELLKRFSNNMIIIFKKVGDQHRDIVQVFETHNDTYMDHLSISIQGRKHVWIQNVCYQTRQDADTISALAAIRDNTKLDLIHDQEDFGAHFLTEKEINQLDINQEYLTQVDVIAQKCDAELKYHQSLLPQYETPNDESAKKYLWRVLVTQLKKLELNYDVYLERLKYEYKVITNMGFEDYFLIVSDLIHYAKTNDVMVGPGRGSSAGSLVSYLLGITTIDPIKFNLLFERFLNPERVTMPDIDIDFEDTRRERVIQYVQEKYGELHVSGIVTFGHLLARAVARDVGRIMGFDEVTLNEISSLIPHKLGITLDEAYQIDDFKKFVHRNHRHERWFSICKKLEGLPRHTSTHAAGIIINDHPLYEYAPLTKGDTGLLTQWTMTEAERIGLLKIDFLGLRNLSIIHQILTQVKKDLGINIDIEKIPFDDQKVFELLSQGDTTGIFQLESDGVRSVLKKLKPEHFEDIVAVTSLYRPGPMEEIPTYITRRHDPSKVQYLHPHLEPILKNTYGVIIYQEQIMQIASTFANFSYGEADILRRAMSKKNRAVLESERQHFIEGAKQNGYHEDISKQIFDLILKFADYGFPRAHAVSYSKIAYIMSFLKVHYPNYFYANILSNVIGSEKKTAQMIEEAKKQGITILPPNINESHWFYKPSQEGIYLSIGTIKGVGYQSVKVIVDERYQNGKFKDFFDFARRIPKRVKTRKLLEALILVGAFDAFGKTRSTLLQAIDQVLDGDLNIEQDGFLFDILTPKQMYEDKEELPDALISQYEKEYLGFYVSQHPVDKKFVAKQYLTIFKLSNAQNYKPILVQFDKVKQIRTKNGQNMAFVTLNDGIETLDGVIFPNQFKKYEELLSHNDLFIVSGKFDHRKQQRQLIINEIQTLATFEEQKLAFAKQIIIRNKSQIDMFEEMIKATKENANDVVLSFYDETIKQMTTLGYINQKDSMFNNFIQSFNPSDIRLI
Kind of experiment: biochemical. In kind it is biochemical. The procedure:
(§1) Plasmids encoding EcDnaE (E. coli DnaE residues 1-1160) and SaDnaE (S. aureus DnaE residues 1-1065) with 6×His N-terminal tags, were overexpressed in BL21(DE3) and BL21-AI cells (Invitrogen), respectively. Cells were grown in LB media to an OD ˜0.45 pelleted and then resuspended in Minimal Media, as described in Pryor et al. (1997, Protein Expr Purif. 10:309-19), and inducer (0.4 mM IPTG or 0.2% arabinose) for 21 hours at 18° C. at 220 rpm. Cells were then harvested, frozen for 20 minutes at −80° C. and thawed. Pellets were resuspended in 1× Talon buffer (50 mM Sodium Phosphate, 300 mM Sodium Chloride, pH 7.4) +10% glycerol +Roche PI's (-EDTA). Cells were lysed with two passes through a French press, then centrifuged for 45 minutes at 40,000 rpm (70Ti, Beckman). Supernatant was bound to 5 mL TALON resin (CLONTECH) for 1 hour at room temperature on Nutator. TALON resin was washed with 10 mM imidizole, and DnaE was eluted with 250 mM imidizole. Eluate was concentrated and run on a size exclusion column (SEC200, GE Healthcare) in the following buffer; 25 mM HEPES, 30 mM NaCl,1 mM CaCl2, 5% glycerol, pH 7.9. Pool SEC fractions based on SDS-PAGE run, aliquot, freeze, and store at -80° C.
(§2) DnaE was diluted in 50 mM potassium phosphate pH 7.5, 5 mM BME, 10% glycerol and 200 mM NaCl prior to use.
(§3) The purpose of the DnaE single enzyme assay is to determine the ability of compounds to inhibit the DNA polymerase III α-subunit homolog from Staphylococcus aureus or the α-subunit from Escherichia coli without the other components of the replication machinery. The DnaE single enzyme assay was a modified version of the method, Standard Pol III Assay Using Activated DNA and Four dNTPs, described by Butler et al., 2008, Methods in Molecular Medicine: New Antibiotic Targets 142:25-36. Briefly, in 96-well plates, enzyme was added to a mixture containing 30 mM Tris-HCl pH 7.5, 20% glycerol, 4 mM DTT, 10 mM Mg acetate, 0.025 mM dATP, 0.025 mM dGTP, 0.025 mM dc:TP, 0.011 mM ^3H-dTTP 1 mCi/ml (Perkin-Elmer), and 0.298 mg/mL Dnase I (Sigma) treated “activated” Calf Thymus DNA (Worthington Biochemical). The assay was set up so that 5 μl of compound was distributed to the plates, 90 μl of reaction mix was added to the compound, and 5 μl of enzyme was added to start the reaction. Assays were initiated by the addition of 0.8 μg/ml E. coli or 0.05 μg/ml S. aureus DnaE, incubated for 30 min at 30° C., and terminated by the addition of a 20% trichloroacetic acid and 0.2% sodium pyrophosphate solution. Precipitated labeled DNA was collected on Glass-fiber Filtermat A using Micro96 Harvester, and the filters were washed, dried, and counted in a Microbeta Trilux (Perkin Elmer). Serial dilutions of compounds (in DMSO) were added to the plates before enzyme addition.

Experiment [2] relates to Pseudomonas aeruginosa MB5890 (CB1101, efflux-deleted). The experiment in a line: microbe, parasite or virus in culture. In kind it is cell-based. As to conditions: * = some reduction of growth versus control at […]; for MIC: Pseudomonas aeruginosa, read-out: P. aeruginosa MB5890 efflux-del (MIC), MHII broth.
Experiment [3] concerns Escherichia coli MB5747 (LS 883, tolC). The experiment in a line: microbe, parasite or virus in culture. In kind it is cell-based. As to conditions: * = some reduction of growth versus control at […]; for MIC: Escherichia coli, read-out: E. coli LS883 tolC (MIC), MHII broth.
Experiment [4] deals with Staphylococcus aureus MB6266 (MRSA COL). Kind of experiment: Nargenicin antibacterial assay (MIC), S. aureus. In kind it is cell-based. As to conditions: Staphylococcus aureus, MRSA, read-out: S. aureus COL (MIC), MHII broth + 50% human serum; * = some reduction of growth versus control at […].
Experiment [5] has as its system Streptococcus pneumoniae MB6357 (CL 2883). The experiment in a line: Nargenicin antibacterial assay (MIC), S. pneumoniae. In kind it is cell-based. The conditions noted are these: for MIC: Streptococcus pneumoniae.
Experiment [6] addresses T2, E. coli DnaE (DNA polymerase III α-subunit from Escherichia coli) (Escherichia coli, UniProt P10443).
T2 construct: EcDnaE (E. coli DnaE residues 1-1160); 6xHis (N); made in house; host or cells: E. coli BL21(DE3)
Kind of experiment: In vitro DnaE single enzyme assay (E. coli). In kind it is biochemical. On the procedure: as §1, §2, §3

Where [7] appears, read: read-out: S. pneumoniae MB2883 (MIC), Isosensitest broth, * = some reduction of growth versus control at […].
Setting [8] is: read-out: S. aureus DnaE IC50 (converted).
Where [9] appears, read: read-out: S. pneumoniae MB2883 (MIC).

T2 sequence (P10443 whole entry, the tested form may be a part): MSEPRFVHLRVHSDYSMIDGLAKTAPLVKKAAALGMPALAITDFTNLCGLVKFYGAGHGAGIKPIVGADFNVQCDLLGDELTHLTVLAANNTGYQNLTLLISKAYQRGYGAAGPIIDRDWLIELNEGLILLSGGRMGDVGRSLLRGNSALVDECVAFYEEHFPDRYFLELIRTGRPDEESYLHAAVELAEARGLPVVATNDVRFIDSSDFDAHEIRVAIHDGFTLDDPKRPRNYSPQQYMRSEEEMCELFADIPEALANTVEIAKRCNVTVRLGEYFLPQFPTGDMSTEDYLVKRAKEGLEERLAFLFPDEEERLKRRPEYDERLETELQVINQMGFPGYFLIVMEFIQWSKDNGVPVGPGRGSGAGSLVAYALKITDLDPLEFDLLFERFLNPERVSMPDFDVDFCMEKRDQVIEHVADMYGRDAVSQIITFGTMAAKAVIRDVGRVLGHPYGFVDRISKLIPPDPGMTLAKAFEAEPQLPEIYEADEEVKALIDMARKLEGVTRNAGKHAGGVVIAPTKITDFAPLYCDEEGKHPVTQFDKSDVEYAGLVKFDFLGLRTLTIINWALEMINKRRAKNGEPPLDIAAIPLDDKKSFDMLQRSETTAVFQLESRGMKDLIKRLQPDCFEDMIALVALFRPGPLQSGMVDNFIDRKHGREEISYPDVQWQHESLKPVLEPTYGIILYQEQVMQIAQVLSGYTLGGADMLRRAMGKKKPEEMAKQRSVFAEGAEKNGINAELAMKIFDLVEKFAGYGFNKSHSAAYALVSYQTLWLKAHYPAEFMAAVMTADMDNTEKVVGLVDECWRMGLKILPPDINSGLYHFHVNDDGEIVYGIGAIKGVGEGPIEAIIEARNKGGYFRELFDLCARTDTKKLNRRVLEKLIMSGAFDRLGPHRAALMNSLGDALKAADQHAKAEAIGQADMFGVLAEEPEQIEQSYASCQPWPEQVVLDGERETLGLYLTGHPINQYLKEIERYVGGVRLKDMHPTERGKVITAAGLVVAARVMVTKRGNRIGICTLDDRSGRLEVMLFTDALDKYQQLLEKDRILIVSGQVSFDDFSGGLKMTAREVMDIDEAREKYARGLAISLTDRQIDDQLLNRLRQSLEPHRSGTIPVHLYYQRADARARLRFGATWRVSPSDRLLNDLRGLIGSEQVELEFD

The IC50 is the point on the concentration scale where inhibition reaches its midpoint. As to `COC1CC2C=CC3C4OC2(C(C)=CC(C)C(C(C)OC(=O)OCCN(CCO)C(CO)(CO)CO)OC1=O)C3C(O)C(C)C4OC(=O)c1ccc[nH]1` (stereo not drawn) [Example 31], in experiment [1] (S. aureus DnaE IC50), the half-maximal inhibitory concentration (IC50) is under 0.00799 µM. Moreover, the MIC in experiment [2] is 32 µg/mL (≈ 42.6 µM); in experiment [3] it was 2 µg/mL (≈ 2.66 µM); in experiment [4] it was 2 µg/mL; in experiment [5] (setting [7]), over 128 µg/mL.
Turning to `CC[C@H]1OC(=O)[C@@H](OC)C[C@H]2C=C[C@H]3[C@H]4O[C@]2(/C(C)=C/[C@H]1C)[C@@H]3[C@H](O)C(C)[C@H]4C[N+](=O)[O-]` (stereo partly drawn) [Example 190, (3R,4R,7S,8aS,10aR,11R,12S,14R,14aS,14bS,E)-4-ethyl-14-hydroxy-7-methoxy-1,3,13-trimethyl-12-(nitromethyl)-3,4,8,8a,10a,11,12,13,14,14a-decahydro-11,14b-epoxynaphtho[2,1-e]oxecin-6(7H)-one], the IC50 was 66.7 µM in experiment [6] (E. coli DnaE IC50) and 6.67 µM in experiment [1] (setting [8]). Moreover, the MIC is over 64 µg/mL in experiment [2], 64 µg/mL (≈ 142 µM) in experiment [3] and over 64 µg/mL in experiment [5] (setting [9]).
In the case of `CO[C@H]1C[C@H]2C=C[C@H]3[C@H]4O[C@]2(/C(C)=C/[C@@H](C)[C@@H]([C@@H](C)O)OC1=O)[C@@H]3[C@H](O)[C@@H](C)[C@H]4OCc1ccsc1` [Example 184], the IC50 in experiment [6] (E. coli DnaE IC50) is 75.2 µM; in experiment [1] (setting [8]), 0.0771 µM. For the same molecule, the MIC in experiment [2] was 64 µg/mL (≈ 123 µM); in experiment [3], 8 µg/mL (≈ 15.4 µM); in experiment [5] (setting [9]), 64 µg/mL (≈ 123 µM).
For `CO[C@H]1C[C@H]2C=CC3C4[C@H](O)[C@@H](C)[C@@H](OC(=O)c5ccc[nH]5)[C@@H]3O[C@]42/C(C)=C/[C@@H](C)[C@@H]([C@@H](C)OC(=O)C(=O)OCCN(C)C)OC1=O.O=C(O)C(F)(F)F` [Example 205], the values for the IC50 in experiment [6] (E. coli DnaE IC50) and in experiment [1] (setting [8]) were 7.76 µM and under 0.00776 µM, respectively. Besides, the results for the MIC in experiment [2], in experiment [3] and in experiment [5] (setting [9]) were 64 µg/mL, 2 µg/mL and over 128 µg/mL, respectively.
For `CO[C@H]1C[C@H]2C=CC3C4[C@H](O)[C@@H](C)[C@@H](OC(=O)c5ccc[nH]5)[C@@H]3O[C@]42/C(C)=C/[C@@H](C)[C@@H]([C@@H](C)OC(=O)C(=O)OCc2cccnc2)OC1=O.O=C(O)C(F)(F)F` [Example 208] the same measures were 3.41 µM, under 0.00757 µM, 32 µg/mL, 1 µg/mL and over 128 µg/mL.
On to `CO[C@H]1C[C@H]2C=C[C@@H]3[C@H]4C(=O)C(C)C(C[N+](=O)[O-])[C@@H]3O[C@@]24/C(C)=C/[C@@H](C)[C@@H]([C@@H](C)OCSC)OC1=O` (stereo partly drawn) [Example 175], for which the IC50 in experiment [1] (S. aureus DnaE IC50) was over 191 µM. The MIC in experiment [2], in experiment [3], in experiment [4] and in experiment [5] (setting [7]) was over 128 µg/mL each time.
On to `CO[C@H]1CC2C=C[C@H]3[C@H]4O[C@]2(/C(C)=C/[C@@H](C)[C@@H]([C@@H](C)OC(=O)OC2CCC(O)CC2)OC1=O)[C@@H]3[C@H](O)[C@@H](C)[C@H]4OC(=O)c1ccc[nH]1` (single isomer, unassigned) [Example 35], for which the half-inhibitory concentration (IC50) is over 76 µM in experiment [6] (read-out: E. coli DnaE IC50 (converted)) and 0.0106 µM in experiment [1] (read-out: S. aureus DnaE IC50). Besides, the “P. aeruginosa MB5890 efflux-del (MIC)” value in experiment [2] (MHII broth) is over 128 µg/mL. In addition, the “E. coli LS883 tolC (MIC)” value in experiment [3] (MHII broth) was found to be 32 µg/mL. Moreover, in experiment [5] (Isosensitest broth, * = some reduction of growth versus control at […]), the “S. pneumoniae MB2883 (MIC)” value turned out to be 64 µg/mL.
On to `CO[C@H]1C[C@H]2C=C[C@H]3[C@H]4O[C@]2(/C(C)=C/[C@@H](C)[C@@H]([C@@H](C)O)OC1=O)[C@@H]3[C@H](O)[C@@H](C)[C@H]4OC(=O)c1ccsc1` [Example 183], for which the figures for the 50% inhibitory concentration (IC50) in experiment [6] (E. coli DnaE IC50) and in experiment [1] (setting [8]) were 9.76 µM and under 0.0113 µM, respectively. For the same molecule, the results for the MIC in experiment [2], in experiment [3] and in experiment [5] (setting [9]) were 16 µg/mL (≈ 30 µM), 1 µg/mL (≈ 1.88 µM) and 64 µg/mL (≈ 120 µM), respectively.
In turn, `CO[C@H]1CC2C=C[C@H]3[C@H]4O[C@]2(/C(C)=C/[C@@H](C)[C@@H](C(C)O)OC1=O)[C@@H]3[C@H](O)[C@@H](C)[C@H]4OC(=O)c1cc(-c2cccn2C(=O)OC(C)(C)C)c[nH]1` (stereo partly drawn) [Example 45] showed a 50% inhibitory concentration (IC50) in experiment [1] (S. aureus DnaE IC50) of 2.2 µM. Besides, the MIC was over 128 µg/mL in experiment [2], over 128 µg/mL in experiment [3], over 128 µg/mL in experiment [4] and 4 µg/mL (≈ 5.88 µM) in experiment [5] (setting [7]).
With `CO[C@H]1C[C@H]2C=C[C@H]3[C@H]4O[C@]2(/C(C)=C/[C@@H](C)[C@@H]([C@@H](C)O)OC1=O)[C@@H]3[C@H](O)[C@@H](C)[C@H]4O` [Example 152], the MIC was 16 µg/mL (≈ 37.9 µM) in experiment [2], 16 µg/mL (≈ 37.9 µM) in experiment [3], over 128 µg/mL in experiment [4] and over 128 µg/mL in experiment [5] (setting [7]).
Regarding `CO[C@H]1CC2C=C[C@H]3[C@H]4O[C@]2(/C(C)=C/[C@@H](C)[C@@H](C(C)O)OC1=O)[C@@H]3[C@H](O)[C@@H](C)[C@H]4OC(=O)c1cc(-c2ccsc2)c[nH]1` (stereo partly drawn) [Example 165], in experiment [1] (S. aureus DnaE IC50), the 50% inhibitory concentration (IC50) is 4.85 µM. Also, the MIC in experiment [2] is over 128 µg/mL; in experiment [3] it was 16 µg/mL (≈ 26.8 µM); in experiment [4], over 128 µg/mL; in experiment [5] (setting [7]) it was 8 µg/mL (≈ 13.4 µM).
